Experimental findings from patent US11708360B2, “N-substituted-dioxocyclobutenylamino-3-hydroxy-picolinamides useful as CCR6 inhibitors” (Pfizer Inc., priority 2018, dated 2023) are described below.

Like-named read-outs stand apart in the source and are kept apart here.

One may read the IC50 as the point on the concentration scale where inhibition reaches its midpoint.

In one assay the target is T1, CCR6 (Homo sapiens, UniProt P51684).
T1 construct: Human CD4+CCR6+CXCR3-T cells were isolated from leukopak from healthy donors; endogenous in cells
T1 sequence (P51684 1-374): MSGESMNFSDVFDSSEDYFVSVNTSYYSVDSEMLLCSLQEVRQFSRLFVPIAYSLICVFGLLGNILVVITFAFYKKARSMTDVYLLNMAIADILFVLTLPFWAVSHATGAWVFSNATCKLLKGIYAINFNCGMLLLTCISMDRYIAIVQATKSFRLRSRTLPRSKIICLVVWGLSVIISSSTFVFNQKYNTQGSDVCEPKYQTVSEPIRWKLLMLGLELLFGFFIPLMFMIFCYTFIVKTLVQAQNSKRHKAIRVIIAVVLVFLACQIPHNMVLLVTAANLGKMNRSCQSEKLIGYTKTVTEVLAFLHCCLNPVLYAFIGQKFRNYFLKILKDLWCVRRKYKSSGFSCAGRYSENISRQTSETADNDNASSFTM
Briefly: CCR6+ T Cell Chemotaxis Assay. The format is cell-based. To be noted: for T Cell Chemotaxis Selectivity: Table 13, T cell chemotaxis compared to neutrophil chemotaxis. From the text: Human CD4+CCR6+CXCR3-T cells were isolated from leukopak from healthy donors using EasySep™ Human Th17 Cell Enrichment Kit. […] Day 4 post activation, Dynabeads were removed from the culture. The activated T cells were maintained at 1-2×10^6 cells/mL for 15 days by feeding fresh growth media when needed.
For IC50 determination, the top and bottom of the chemotaxis chamber contained the same concentration of compound. DMSO was kept constant at 0.1% (v/v) in all wells. The final concentration of CCL20 (Peprotech 300-29A) in the bottom chamber is 0.5 nM. The fully assembled chemotaxis plate was placed in a cell culture incubator at 37° C., 5% CO2 for 1 h. After incubation, the top filter was removed, followed by a quick freeze of the bottom chamber at −80° C. for 1 h. The migrated cells in the bottom chamber were stained with CyQUANT dye (Life Technologies, C7026) for cell number determination.
IC50 values for compounds of the present invention (Table 11) were determined by the non-linear regression analysis of dose response curves.

The target of a further assay is T2, CXCR2 (Homo sapiens, UniProt P25025).
T2 sequence (P25025 1-360): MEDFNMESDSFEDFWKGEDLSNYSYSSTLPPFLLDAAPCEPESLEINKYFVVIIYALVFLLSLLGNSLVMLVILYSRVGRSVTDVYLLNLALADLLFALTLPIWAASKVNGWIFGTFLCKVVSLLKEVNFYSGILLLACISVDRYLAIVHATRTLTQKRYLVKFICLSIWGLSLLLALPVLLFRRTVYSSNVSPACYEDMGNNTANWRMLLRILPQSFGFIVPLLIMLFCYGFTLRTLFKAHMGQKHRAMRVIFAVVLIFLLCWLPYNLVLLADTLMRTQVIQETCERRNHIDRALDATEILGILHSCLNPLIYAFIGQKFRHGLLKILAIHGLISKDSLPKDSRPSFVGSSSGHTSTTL
Briefly: Human Neutrophil Chemotaxis Assay. The format is cell-based. The arrangement: Human neutrophils were purified from freshly drawn human whole blood; endogenous in cells; host or cells: primary human neutrophils from fresh whole blood. Here is the method:
After 30 min, the labeled neutrophils were washed twice in chemotaxis buffer, resuspended as before and used immediately. For the assay, test compounds were tested in a dose-response format to determine IC50. Labeled neutrophils (50 μL) were pre-incubated with diluted test compound (50 μL) for 30 min in a 96-well plate (Greiner). Next, 100 μL of diluted compound was mixed with 100 μL of GROα (Peprotech #300-11, 2 nM) in the bottom portion of the chemotaxis chamber. The top portion (insert) of the chemotaxis system containing the FluoroBlok porous membrane was then assembled together. 50 μL of the pre-incubated neutrophils were added to the FluoroBlok insert (top portion) and chemotaxis measured by the neutrophils ability to migrate through the membrane towards the specific CXCR2 ligand, GROα.
IC50 values for compounds of the present invention (Table 12) were determined by the non-linear regression analysis of dose response curves.

[1] abbreviates: Table 11, human CD4+CCR6+CXCR3- T cells, CCL20 0.5 nM in bottom chamber, 1 h at 37° C., read-out: IC50.
Setting [2] is: NS = not selective for T cell chemotaxis compared to neutrophil chemotaxis.
[3] abbreviates: Table 12, human neutrophils migrating towards the CXCR2 ligand GROα, read-out: IC50.
Setting [4] is: Table 14, R = H, read-out: R = H, IC50 (nM) CCR6 T cell, CCL20 Chemotaxis.
Setting [5] is: Table 14, R = H, read-out: R = H, IC50 (nM) CXCR2 Neutrophil, GROα Chemotaxis.
Setting [6] is: Table 14, R = CH3, read-out: R = CH3, IC50 (nM) CCR6 T cell, CCL20 Chemotaxis.
[7] abbreviates: Table 14, R = CH3, read-out: R = CH3, IC50 (nM) CXCR2 Neutrophil, GROα Chemotaxis.

As for `CC(C)N(C)C(=O)c1nccc(Nc2c(N[C@@H](c3nn(C)cc3C#N)C3(C)CCCC3)c(=O)c2=O)c1O` [Example 31, (R)-4-((2-(((4-cyano-1-methyl-1H-pyrazol-3-yl)(1-methylcyclopentyl)methyl)amino)-3,4-dioxocyclobut-1-en-1-yl)amino)-3-hydroxy-N-isopropyl-N-methylpicolinamide], the IC50 on CCR6 (setting [1]) turned out to be 45.4 nM; at CXCR2 (setting [3]), 2750 nM. For the same compound, the “T Cell Chemotaxis Selectivity” value on CCR6 (setting [2]) is reported as 60.
In the case of `Cc1nc([C@H](Nc2c(Nc3ccnc(C(=O)N(C)C)c3O)c(=O)c2=O)C2(C)CCCC2)cs1` [drawing 180 (R = H), reference compound], the “R = H, T Cell Chemotaxis Selectivity” value at CCR6 (Table 14, R = H, NS = not selective for T cell chemotaxis compared to neutrophil chemotaxis) was determined as 10.8. Besides, the half-inhibitory concentration (IC50) at CCR6 (setting [4]) was 32.1 nM; at CXCR2 (setting [5]), 346 nM.
In the case of `Cc1nc([C@H](Nc2c(Nc3ccnc(C(=O)N(C)C)c3O)c(=O)c2=O)C2(C)CC2)c(C)s1` [Example 19, (R)-4-((2-(((2,5-Dimethylthiazol-4-yl)(1-methylcyclopropyl)-methyl)amino)-3,4-dioxocyclobut-1-en-1-yl)amino)-3-hydroxy-N,N-dimethylpicolinamide], the IC50 was found to be 70.6 nM at CCR6 (setting [1]) and 197 nM at CXCR2 (setting [3]). At CCR6 (setting [2]), the “T Cell Chemotaxis Selectivity” value is reported as 3.
On the same counts, the results for `Cc1cn(C)nc1[C@H](Nc1c(Nc2ccnc(C(=O)N(C)C)c2O)c(=O)c1=O)[C@]1(C)CC(F)(F)CO1` (single isomer, unassigned) [Example 36] are 32.3 nM, 7130 nM and 220.
`CCc1cn(C)nc1[C@H](Nc1c(Nc2ccnc(C(=O)N(C)C)c2O)c(=O)c1=O)C1(C)CCC1` [Example 26, (R)-4-((2-(((4-Ethyl-1-methyl-1H-pyrazol-3-yl)(1-methylcyclobutyl)methyl)amino)-3,4-dioxocyclobut-1-en-1-yl)amino)-3-hydroxy-N,N-dimethylpicolinamide]: the IC50 was 3.3 nM on CCR6 (setting [1]) and 142 nM on CXCR2 (setting [3]). For the same compound, the “T Cell Chemotaxis Selectivity” value at CCR6 (setting [2]) came to 43.
For the compound `Cc1cn(C)nc1[C@@H](Nc1c(Nc2ccnc(C(=O)N(C)C)c2O)c(=O)c1=O)C1(C)CCCC1` [Example 2, (S)-4-((2-(((1,4-Dimethyl-1H-pyrazol-3-yl)(1-methylcyclopentyl)methyl)amino)-3,4-dioxocyclobut-1-en-1-yl)amino)-3-hydroxy-N,N-dimethylpicolinamide], the IC50 turned out to be 186 nM on CCR6 (setting [1]) and 7310 nM on CXCR2 (setting [3]).
As to `Cc1cn(C)nc1[C@H](Nc1c(Nc2ccnc(C(=O)N(C)C)c2O)c(=O)c1=O)C1(C)CCCC1` [Example 1, (R)-4-((2-(((1,4-Dimethyl-1H-pyrazol-3-yl)(1-methylcyclopentyl)methyl)amino)-3,4-dioxocyclobut-1-en-1-yl)amino)-3-hydroxy-N,N-dimethylpicolinamide], the IC50 at CCR6 (setting [1]) amounted to 5.8 nM; at CCR6 (setting [6]) it was 5.8 nM; at CXCR2 (setting [3]), 524 nM; on CXCR2 (setting [7]) it was 524 nM.
Take `Cc1nc([C@H](Nc2c(Nc3ccnc(C(=O)N(C)C)c3O)c(=O)c2=O)C2(C)CCCC2)c(C)s1` [Example 32, (R)-4-((2-(((2,5-Dimethylthiazol-4-yl)(1-methylcyclopentyl)-methyl)amino)-3,4-dioxocyclobut-1-en-1-yl)amino)-3-hydroxy-N,N-dimethylpicolinamide]: the IC50 came out at 2.7 nM on CCR6 (setting [1]), 2.7 nM at CCR6 (setting [6]), 332 nM on CXCR2 (setting [3]) and 332 nM on CXCR2 (setting [7]). On CCR6 (setting [2]), the “T Cell Chemotaxis Selectivity” value is 123. For the same compound, the “R = CH3, T Cell Chemotaxis Selectivity” value on CCR6 (Table 14, R = CH3) is reported as 123.
For `Cc1nc([C@H](Nc2c(Nc3ccnc(C(=O)N(C)C)c3O)c(=O)c2=O)C2(C)CCCC2)c(C)o1` (single isomer, unassigned) [Example 34], the concentration for half-maximal inhibition (IC50) at CCR6 (setting [1]) was found to be 24 nM; at CXCR2 (setting [3]), 2510 nM. Besides, the “T Cell Chemotaxis Selectivity” value at CCR6 (setting [2]) worked out at 104. Moreover, at CCR6 (Table 14, R = CH3), the “R = CH3, T Cell Chemotaxis Selectivity” value was 104.
On to `CC(C)N(C)C(=O)c1nccc(Nc2c(N[C@@H](c3nn(C)cc3Cl)C3(C)CCCC3)c(=O)c2=O)c1O` [Example 10, (R)-4-((2-(((4-Chloro-1-methyl-1H-pyrazol-3-yl)(1-methylcyclopentyl)methyl)amino)-3,4-dioxocyclobut-1-en-1-yl)amino)-3-hydroxy-N-isopropyl-N-methylpicolinamide], for which the IC50 at CCR6 (setting [1]) worked out at 8.7 nM; at CXCR2 (setting [3]), 175 nM. The “T Cell Chemotaxis Selectivity” value at CCR6 (setting [2]) was found to be 20.
For `Cc1nc([C@H](Nc2c(Nc3ccnc(C(=O)N(C)C)c3O)c(=O)c2=O)C2(C)CCCC2)co1` [drawing 181 (R = H), reference compound], the IC50 at CCR6 (setting [4]) was found to be 64.5 nM; on CXCR2 (setting [5]), 12.2 nM.
As for `CCc1cn(C)nc1[C@H](Nc1c(Nc2ccnc(C(=O)N(C)C)c2O)c(=O)c1=O)C1(C)CC1` [Example 21, (R)-4-((2-(((4-Ethyl-1-methyl-1H-pyrazol-3-yl)(1-methylcyclopropyl)methyl)amino)-3,4-dioxocyclobut-1-en-1-yl)amino)-3-hydroxy-N,N-dimethylpicolinamide], the results for the IC50 on CCR6 (setting [1]) and at CXCR2 (setting [3]) were 102 nM and 293 nM, respectively. The “T Cell Chemotaxis Selectivity” value on CCR6 (setting [2]) came out at 3.
Turning to `Cc1cn(C)nc1[C@H](Nc1c(Nc2ccnc(C(=O)N(C)C)c2O)c(=O)c1=O)C1(C)CCC1` [Example 23, (R)-4-((2-(((1,4-Dimethyl-1H-pyrazol-3-yl)(1-methylcyclobutyl)methyl)amino)-3,4-dioxocyclobut-1-en-1-yl)amino)-3-hydroxy-N,N-dimethylpicolinamide], the IC50 at CCR6 (setting [1]) worked out at 16.5 nM; at CXCR2 (setting [3]), 248 nM. Further, the “T Cell Chemotaxis Selectivity” value on CCR6 (setting [2]) came to 15.
Taken in the same sequence, the figures for `CN(C)C(=O)c1nccc(Nc2c(N[C@@H](c3nn(C)cc3C3CC3)C3(C)CCCC3)c(=O)c2=O)c1O` [Example 29, (R)-4-((2-(((4-Cyclopropyl-1-methyl-1H-pyrazol-3-yl)(1-methylcyclopentyl)methyl)amino)-3,4-dioxocyclobut-1-en-1-yl)amino)-3-hydroxy-N,N-dimethylpicolinamide] were 12 nM, 4410 nM and 367.
Taken in the same sequence, the figures for `CN(C)C(=O)c1nccc(Nc2c(N[C@@H](c3nn(C)cc3C#N)C3(C)CCCC3)c(=O)c2=O)c1O` [Example 16, (R)-4-((2-(((4-Cyano-1-methyl-1H-pyrazol-3-yl)(1-methylcyclopentyl)methyl)amino)-3,4-dioxocyclobut-1-en-1-yl)amino)-3-hydroxy-N,N-dimethylpicolinamide] were 41.7 nM, 4350 nM and 104.
On the same counts, the results for `COc1cn(C)nc1[C@H](Nc1c(Nc2ccnc(C(=O)N(C)C(C)C)c2O)c(=O)c1=O)C1(C)CCCC1` [Example 11, (R)-3-Hydroxy-N-isopropyl-4-((2-(((4-methoxy-1-methyl-1H-pyrazol-3-yl)(1-methyl-cyclopentyl)methyl)amino)-3,4-dioxocyclobut-1-en-1-yl)amino)-N-methylpicolinamide] are 1.9 nM, 210 nM and 110.
